Peptide text beside a SMILES is read from it.

Test [1] has as its system plasmid-encoded luciferase in HEK293 cells. Put plainly: Transient transfection of luciferase expression plasmid (CMV promoter) with peptide, luciferase in cell lysates.
Test [2] concerns baculovirus encoding luciferase under control of the CMV promoter. Put plainly: Baculovirus-mediated luciferase gene expression in HEK293 cells. The class given is cell-based. Here is the method:
A baculovirus was generated with the luciferase coding region under control of the CMV promoter integrated in its viral genome. The baculovirus was applied to HEK293 cells pretreated for 10 minutes with DMSO or increasing concentrations of peptide I24, TAT and the fusion peptide TAT-I24. Luciferase expression is reduced in cells treated with cell-permeable fusion peptide TAT-I24 in a dose-dependent manner (FIG. 7a). Baculovirus-infected cells incubated with DMSO, TAT-I24 or TAT were stimulated with TNF-α and total RNA isolated from cells. After treatment of the RNA with DNAse I, reverse transcription was performed. Luciferase and IL-8 mRNA were analysed by real-time PCR.

In test [3] the test system is lentivirus containing luciferase under control of the CMV promoter. Put plainly: Lentivirus luciferase gene expression in HEK293 cells. The format is cell-based. As to conditions: 20 μM, 48 hrs. As for the experimental part:
HEK293 cells were incubated with peptide I24, TAT-tagged peptide I24 (TAT-I24), or TAT followed by addition of lentivirus containing luciferase under control of the CMV promoter for 48 hrs.

A further test has as its system vaccinia virus. The format is cell-based.
Test [4] relates to adenovirus encoding luciferase and GFP. Put plainly: Adenovirus gene expression and replication in HEK293 cells. The format is cell-based. Here is the method:
HEK293 cells were treated with increasing concentrations of the peptides I24, TAT-I24 or TAT alone and incubated with adenovirus encoding luciferase and green fluorescence protein (GFP) under control of the CMV promoter. […] HEK293 cells were treated with vehicle control, the peptide I24, TAT-I24 or TAT alone (20 μM) and adenovirus particles encoding luciferase and GFP. After 72 hrs, RNA was isolated and luciferase and GFP as well as adenovirus hexon transcript levels analysed by real-time PCR and normalized to GAPDH. […] DNA was isolated from supernatants and adenovirus hexon DNA quantified using real-time PCR (FIG. 8c).

A further test deals with herpes simplex virus. Put plainly: Herpes simplex virus plaque-formation assay. The class given is cell-based. An excerpt:
Cells were infected with herpes simplex virus and replication of virus determined by a plaque-formation assay (see examples above). Replication of herpes simplex virus was inhibited by TAT-I24 in a dose-dependent manner.

The mark [5] stands for this setting: TNF-α stimulated, real-time PCR.

Consider `CC(C)C[C@H](NC(=O)[C@H](CS)NC(=O)[C@H](CCC(N)=O)NC(=O)[C@@H]1CCCN1C(=O)[C@@H]1CCCN1C(=O)[C@H](CCCNC(=N)N)NC(=O)[C@H](CCCNC(=N)N)NC(=O)[C@H](CCCNC(=N)N)NC(=O)[C@H](CCC(N)=O)NC(=O)[C@H](CCCNC(=N)N)NC(=O)[C@H](CCCNC(=N)N)NC(=O)[C@H](CCCCN)NC(=O)[C@H](CCCCN)NC(=O)[C@H](CCCNC(=N)N)NC(=O)CN)C(=O)N[C@@H](C)C(=O)N[C@@H](Cc1ccccc1)C(=O)N[C@@H](Cc1ccc(O)cc1)C(=O)N[C@@H](C)C(=O)N[C@@H](CS)C(=O)N[C@@H](Cc1ccccc1)C(=O)N[C@@H](CS)C(=O)O` [TAT-I24] (H-GRKKRRQRRRPPQCLAFYACFC-OH; N-terminus and C-terminus assumed), for which the “luciferase % of DMSO con-” value in test [1] (peptide 2 μM, 24 hrs post-transfection, HEK293, relative to DMSO control) amounted to 1.8%. The “inhibition of luciferase production (in words)” value in test [1] (peptide transfected with CMV-luciferase plasmid, HEK293, 24 hrs) is recorded as “more potent inhibition of luciferase expression”. In test [1] (read-out: IC50 inhibition of plasmid-encoded luciferase levels, transfected together with the plasmid-DNA), the IC50 was 0.06 µM. The “baculovirus-mediated luciferase expression (in words)” value in test [2] (HEK293 pretreated for 10 minutes) is listed as “reduced”. Also, in test [2] (setting [5]), the “IL-8 mRNA levels (cellular gene)” value is on record as “remained unaffected” and the “luciferase mRNA (baculovirus-encoded)” value is recorded as “down-regulated”. For the same compound, the “reduction in luciferase levels, lentivirus” value in test [3] came to 75%. Moreover, the “inhibition of virus replication, vaccinia virus” value in the test on vaccinia virus (20 μM) is over 90%. In addition, the “reduction of amount of viral DNA in the supernatants” value in the test on vaccinia virus (20 μM, 24 hrs after infection) was over 90%. For the same compound, the “reduction of number of plaque forming units (PFU) in the supernatants” value in the test with vaccinia virus (20 μM, plaque assay using BSC-40 cells) is recorded as over 90%. In addition, the “rpo22 mRNA levels (in words)” value in the test on vaccinia virus (24 hrs after infection, normalized to GAPDH) was “dose-dependently inhibited”. The “luciferase, GFP and adenovirus hexon transcript levels” value in test [4] (20 μM, 72 hrs, normalized to GAPDH) is on record as “inhibition of all three adenovirus-encoded genes”. The “cell detachment of virus-infected HEK293 cells” value in test [4] (96 hrs after infection, crystal violet staining) is reported as “inhibition of cell detachment”. Also, the IC50 in test [4] (HEK293, read-out: IC50 luciferase protein levels, adenovirus) came to 6 µM. In test [4] (real-time PCR of supernatant DNA), the “adenovirus particles released to supernatants (hexon DNA)” value was “inhibits formation and release of adenovirus particles to supernatants”. For the same compound, in the test on herpes simplex virus, the “replication of herpes simplex virus” value is listed as “inhibited”.

(Values after patent US11034726B2, “Gene expression inhibitors” (PIVARIS BIOSCIENCE GMBH, priority 2017, dated 2021).)
